Test results taken from patent publication US11427541B2, “Salt forms of a complement component C5A receptor” (CHEMOCENTRYX, INC., priority 2019, dated 2022).
Counter-ions that a name gives are not always drawn.

What was measured:
[1] = hygroscopicity and physical stability by dynamic vapor sorption (DVS); assay type: physicochemical; conditions: for DVS weight change from 5% to 95% relative humidity (RH): 5% to 95% RH; for DVS weight change from about 0% RH to about 55% relative humidity: about 0% to about 55% RH; for change in XRPD before and after the DVS measurement: data not shown; for DVS weight change from about 0% RH to about 75% relative humidity: about 0% to about 75% RH
Experimental: To evaluate the hygroscopicity and physical stability of the collected crystals under different humidity, dynamic vapor sorption (DVS) data was collected at 25° C. after the sample was pre-equilibrated at 0% RH to remove unbounded water. DVS was measured using a VTI SGA-100 Vapor Sorption Analyzer. Sorption and desorption data was collected over a range from 5% to 95% RH at 10% RH increments under a nitrogen purge. The equilibrium criterion used for analysis was less than 0.0100% weight change in 5 minutes with a maximum equilibrium time of 3 hours. [table]

[2] = stability of the crystals on storage and heating (HPLC, LCMS, NMR, XRPD); assay type: physicochemical; conditions: for decomposition on storage (HPLC, LCMS and NMR analysis): 40° C. and 75% relative humidity for 45 days; for physical form by XRPD before and after the stability tests: both samples of the stability tests
Experimental: The stability of the collected crystals were tested by storing the crystals at 40° C. and 75% relative humidity for 45 days.

[3] = as above; assay type: physicochemical
[4] = in vivo rat PK study, aqueous liquid suspension with 0.5% w/v Hydroxypropyl Cellulose and 0.5% w/v Poloxamer F-68 (Example 8); conditions: oral 10 mg/kg of Compound 1, 5 mL/kg
Experimental: (§1) An in vivo rat PK study was conducted to compare the PK profile and bioavailability of the free base crystalline form of Compound 1 against various salt forms of Compound 1 in an aqueous liquid suspension formulation, which contained 0.5% w/v Hydroxypropyl Cellulose (Klucel GF grade) and 0.5% w/v Poloxamer F-68 (BASF Kolliphor P188). Each animal was orally administrated 10 mg/kg of Compound 1 at 5 mL/kg dosing volume (a dosing concentration of 2 mg/mL).

[5] = in vivo rat PK study, aqueous liquid suspension with 1% HPMC (Example 9); conditions: oral 10 mg/kg of Compound 1, 5 mL/kg, suspension in 1% HPMC
Experimental: as §1, with “1% HPMC.” for “0.5% w/v Hydroxypropyl Cellulose (Klucel GF grade) and 0.5% w/v Poloxamer F-68 (BASF Kolliphor P188).”

[6] = 25° C., listed as Napadisylate Salt of Compound 1 (Form I)
[7] = 55° C. in a vacuum oven for 24 h
[8] = 75° C. for 1 week (open to air)
[9] = suspension in 0.5% HPC / 0.5% Poloxamer F-68
[10] = listed as Crystalline Napadisylate
[11] = in vivo, po, 10 mg/kg, suspension in 0.5% HPC / 0.5% Poloxamer F-68
[12] = in vivo, po, 10 mg/kg, suspension in 0.5% HPC / 0.5% Poloxamer F-68, read-out: AUC0-t
[13] = in vivo, po, 10 mg/kg, suspension in 0.5% HPC / 0.5% Poloxamer F-68, read-out: Cmax
[14] = in vivo, po, 10 mg/kg, read-out: AUC0-t
[15] = in vivo, po, 10 mg/kg, read-out: Cmax
[16] = listed as Crystalline Camsylate
[17] = listed as Crystalline Edisylate
[18] = 25° C., listed as Napsylate Salt of Compound 1 (Form I)
[19] = listed as Crystalline Napsylate

Row | change in XRPD before and after the DVS measurement [1] | physical form by XRPD before and after the stability tests [2] | AUC0-t [4, 9] [ng·h/mL] | AUCinf [4, 9] [ng·h/mL] | Cmax [4, 9] [ng/mL] | Structure (SMILES) | decomposition on storage (HPLC, LCMS and NMR analysis) [2] | decomposition on heating (HPLC, LCMS and NMR analysis) [3, 7] | decomposition on heating (HPLC, LCMS and NMR analysis) [3, 8] | other results
1 | No change in XRPD | remained the same | 3417 | 3478 | 718 | Cc1ccc(NC(=O)[C@H]2CCCN(C(=O)c3c(C)cccc3F)[C@H]2c2ccc(NC3CCCC3)cc2)cc1C(F)(F)F [Napadisylate Salt (Form I), N-cyclopentyl-4-((2R,3S)-1-(2-fluoro-6-methylbenzoyl)-3-((4-methyl-3-(trifluoromethyl)phenyl)-carbamoyl)piperidin-2-yl)benzenaminium naphthalene-1,5-disulfonate] | did not result in any appreciable decomposition | did not result in any appreciable decomposition | did not result in any appreciable decomposition | DVS weight change from 5% to 95% relative humidity (RH) [1, 6]: 1.42%; DVS weight change from about 0% RH to about 55% relative humidity [1, 6]: about 0.6%; AUC0-t [5, 10]: 5856 ng·h/mL; AUCinf [5, 10]: 7743 ng·h/mL; Cmax [5, 10]: 753 ng/mL
2 | No change in XRPD | remained the same | – | – | – | Cc1ccc(NC(=O)[C@H]2CCCN(C(=O)c3c(C)cccc3F)[C@H]2c2ccc(NC3CCCC3)cc2)cc1C(F)(F)F.Cc1ccc(S(=O)(=O)O)cc1 [Tosylate Salt (Form I), N-cyclopentyl-4-((2R,3S)-1-(2-fluoro-6-methylbenzoyl)-3-((4-methyl-3-(trifluoromethyl)phenyl)-carbamoyl)piperidin-2-yl)benzenaminium 4-methylbenzenesulfonate] | did not result in any appreciable decomposition | did not result in any appreciable decomposition | did not result in any appreciable decomposition | DVS weight change from 5% to 95% relative humidity (RH) ([1]; 25° C.): 0.83%; DVS weight change from about 0% RH to about 75% relative humidity ([1]; 25° C.): about 0.58%; AUC(0-inf) [4, 11]: 4150 ng·h/mL; AUC0-t [4, 12]: 4040 ng·h/mL; Cmax [4, 13]: 591 ng/mL; AUC(0-inf) ([5]; in vivo, po, 10 mg/kg): 3370 ng·h/mL; AUC0-t [5, 14]: 3310 ng·h/mL; Cmax [5, 15]: 649 ng/mL
3 | No change in XRPD | remained the same | 4876 | 5057 | 778 | Cc1ccc(NC(=O)[C@H]2CCCN(C(=O)c3c(C)cccc3F)[C@H]2c2ccc(NC3CCCC3)cc2)cc1C(F)(F)F [Napsylate Salt (Form I), N-cyclopentyl-4-((2R,3S)-1-(2-fluoro-6-methylbenzoyl)-3-((4-methyl-3-(trifluoromethyl)phenyl)-carbamoyl)piperidin-2-yl)benzenaminium naphthalene-2-sulfonate] | did not result in any appreciable decomposition | did not result in any appreciable decomposition | did not result in any appreciable decomposition | DVS weight change from 5% to 95% relative humidity (RH) [1, 18]: 0.65%; DVS weight change from about 0% RH to about 55% relative humidity [1, 18]: about 0.2%; AUC0-t [5, 19]: 4277 ng·h/mL; AUCinf [5, 19]: 4589 ng·h/mL; Cmax [5, 19]: 601 ng/mL

Continued, molecule first:

Row | Structure (SMILES) | change in XRPD before and after the DVS measurement [1] | physical form by XRPD before and after the stability tests [2] | AUC0-t [4, 9] [ng·h/mL] | AUCinf [4, 9] [ng·h/mL] | Cmax [4, 9] [ng/mL] | decomposition on storage (HPLC, LCMS and NMR analysis) [2] | decomposition on heating (HPLC, LCMS and NMR analysis) [3, 7] | decomposition on heating (HPLC, LCMS and NMR analysis) [3, 8] | other results
4 | Cc1ccc(NC(=O)[C@H]2CCCN(C(=O)c3c(C)cccc3F)[C@H]2c2ccc(NC3CCCC3)cc2)cc1C(F)(F)F [Crystalline Free Base, (2R,3S)-2-(4-(cyclopentylamino)phenyl)-1-(2-fluoro-6-methylbenzoyl)-N-(4-methyl-3-(trifluoromethyl)phenyl)piperidine-3-carboxamide] | – | – | – | – | – | – | – | – | AUC0-t [5]: 1361 ng·h/mL; AUCinf [5]: 1377 ng·h/mL; Cmax [5]: 168 ng/mL
5 | Cc1ccc(NC(=O)[C@H]2CCCN(C(=O)c3c(C)cccc3F)[C@H]2c2ccc(NC3CCCC3)cc2)cc1C(F)(F)F [Camsylate Salt (Form I), N-cyclopentyl-4-((2R,3S)-1-(2-fluoro-6-methylbenzoyl)-3-((4-methyl-3-(trifluoromethyl)phenyl)-carbamoyl)piperidin-2-yl)benzenaminium (1S)-(+)-10-camphorsulfonate] | No change in XRPD | remained the same | 3870 | 3922 | 738 | did not result in any appreciable decomposition | did not result in any appreciable decomposition | did not result in any appreciable decomposition | DVS weight change from 5% to 95% relative humidity (RH) ([1]; 25° C., listed as Camsylate Salt of Compound 1 (Form I)): 0.96%; DVS weight change from about 0% RH to about 65% relative humidity ([1]; 25° C., about 0% to about 65% RH): about 0.35%; AUC0-t [5, 16]: 2877 ng·h/mL; AUCinf [5, 16]: 3005 ng·h/mL; Cmax [5, 16]: 553 ng/mL
6 | Cc1ccc(NC(=O)[C@H]2CCCN(C(=O)c3c(C)cccc3F)[C@H]2c2ccc(NC3CCCC3)cc2)cc1C(F)(F)F.O=S(=O)(O)c1ccccc1 [Besylate Salt (Form I), N-cyclopentyl-4-((2R,3S)-1-(2-fluoro-6-methylbenzoyl)-3-((4-methyl-3-(trifluoromethyl)phenyl)-carbamoyl)piperidin-2-yl)benzenaminium benzenesulfonate] | No change in XRPD | remained the same | – | – | – | did not result in any appreciable decomposition | did not result in any appreciable decomposition | did not result in any appreciable decomposition | DVS weight change from 5% to 95% relative humidity (RH) ([1]; 25° C.): 0.73%; DVS weight change from about 0% RH to about 75% relative humidity ([1]; 25° C.): about 0.5%; AUC(0-inf) [4, 11]: 2600 ng·h/mL; AUC0-t [4, 12]: 2510 ng·h/mL; Cmax [4, 13]: 493 ng/mL; AUC(0-inf) ([5]; in vivo, po, 10 mg/kg): 2220 ng·h/mL; AUC0-t [5, 14]: 2170 ng·h/mL; Cmax [5, 15]: 390 ng/mL
7 | Cc1ccc(NC(=O)[C@H]2CCCN(C(=O)c3c(C)cccc3F)[C@H]2c2ccc(NC3CCCC3)cc2)cc1C(F)(F)F [Edisylate Salt (Form I), N-cyclopentyl-4-((2R,3S)-1-(2-fluoro-6-methylbenzoyl)-3-((4-methyl-3-(trifluoromethyl)phenyl)carbamoyl)piperidin-2-yl)benzenaminium ethane-1,2-disulfonate] | – | – | 2839 | 3197 | 435 | – | – | – | AUC0-t [5, 17]: 2126 ng·h/mL; AUCinf [5, 17]: 2162 ng·h/mL; Cmax [5, 17]: 525 ng/mL
